Reference: PubChem BioAssay (NCI)
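The compound was tested at five concentrations on cells cultured in 96-well plates, with a 48-hour exposure period. TGI: total growth inhibition.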

Tests used:
Assay in all cases: NCI-60 cell line screen, 48 h
SF-268 CNS = test system: SF-268 CNS
MOLT-4 leukemia = test system: MOLT-4 leukemia
RXF 393 renal = test system: RXF 393 renal
UO-31 renal = test system: UO-31 renal
SNB-19 CNS = test system: SNB-19 CNS
ACHN renal = test system: ACHN renal
SK-MEL-2 melanoma = test system: SK-MEL-2 melanoma
NCI-H23 lung = test system: NCI-H23 lung
HL-60(TB) leukemia = test system: HL-60(TB) leukemia
A549 NSCLC = test system: A549 NSCLC
KM12 colon = test system: KM12 colon
HS 578T breast = test system: HS 578T breast
PC-3 prostate = test system: PC-3 prostate
OVCAR-5 ovarian = test system: OVCAR-5 ovarian
SNB-75 CNS = test system: SNB-75 CNS
MALME-3M melanoma = test system: MALME-3M melanoma
SF-295 CNS = test system: SF-295 CNS
K-562 leukemia = test system: K-562 leukemia
SN12C renal = test system: SN12C renal
NCI-H226 lung = test system: NCI-H226 lung
HCC-2998 colon = test system: HCC-2998 colon
HCT-15 colon = test system: HCT-15 colon
COLO 205 colon = test system: COLO 205 colon
UACC-257 melanoma = test system: UACC-257 melanoma
UACC-62 melanoma = test system: UACC-62 melanoma
SK-OV-3 ovarian = test system: SK-OV-3 ovarian
SW-620 colon = test system: SW-620 colon
NCI-H460 lung = test system: NCI-H460 lung
SF-539 CNS = test system: SF-539 CNS
HT29 colon = test system: HT29 colon
TK-10 renal = test system: TK-10 renal
HCT-116 colon = test system: HCT-116 colon
OVCAR-4 ovarian = test system: OVCAR-4 ovarian
HOP-92 NSCLC = test system: HOP-92 NSCLC
DU-145 prostate = test system: DU-145 prostate
EKVX NSCLC = test system: EKVX NSCLC
MCF7 breast = test system: MCF7 breast
LOX IMVI melanoma = test system: LOX IMVI melanoma
SR leukemia = test system: SR leukemia
M14 melanoma = test system: M14 melanoma
MDA-N = test system: MDA-N
786-0 renal = test system: 786-0 renal
MDA-MB-435 = test system: MDA-MB-435
CAKI-1 renal = test system: CAKI-1 renal
NCI/ADR-RES ovarian = test system: NCI/ADR-RES ovarian
HOP-62 NSCLC = test system: HOP-62 NSCLC
MDA-MB-231 breast = test system: MDA-MB-231 breast
OVCAR-8 ovarian = test system: OVCAR-8 ovarian
U251 CNS = test system: U251 CNS
RPMI-8226 leukemia = test system: RPMI-8226 leukemia
T-47D breast = test system: T-47D breast
OVCAR-3 ovarian = test system: OVCAR-3 ovarian
SK-MEL-28 melanoma = test system: SK-MEL-28 melanoma
SK-MEL-5 melanoma = test system: SK-MEL-5 melanoma
IGROV1 ovarian = test system: IGROV1 ovarian
CCRF-CEM leukemia = test system: CCRF-CEM leukemia
NCI-H522 lung = test system: NCI-H522 lung
A498 renal = test system: A498 renal

`CC1(C)C=[N+]([O-])C(C)(C)N1` was tested, and the TGI (SF-268 CNS) was over 100 µM, the TGI (MOLT-4 leukemia) was over 100 µM and the TGI (RXF 393 renal) was over 100 µM. It also gave a TGI (UO-31 renal) of over 100 µM, a TGI (SNB-19 CNS) of over 100 µM and a TGI (ACHN renal) of over 100 µM. The TGI (SK-MEL-2 melanoma) was over 100 µM, the TGI (NCI-H23 lung) was over 100 µM and the TGI (HL-60(TB) leukemia) was over 100 µM. The TGI (A549 NSCLC) was over 100 µM, the TGI (KM12 colon) was over 100 µM and the TGI (HS 578T breast) was over 100 µM. The TGI (PC-3 prostate) was over 100 µM, the TGI (OVCAR-5 ovarian) was over 100 µM and the TGI (SNB-75 CNS) was over 100 µM. For the same compound, the TGI (MALME-3M melanoma) was over 100 µM, the TGI (SF-295 CNS) was over 100 µM and the TGI (K-562 leukemia) was over 100 µM. The TGI (SN12C renal) was over 100 µM, the TGI (NCI-H226 lung) was over 100 µM and the TGI (HCC-2998 colon) was over 100 µM. It also gave a TGI (HCT-15 colon) of over 100 µM, a TGI (COLO 205 colon) of over 100 µM and a TGI (UACC-257 melanoma) of over 100 µM. For the same compound, the TGI (UACC-62 melanoma) was over 100 µM, the TGI (SK-OV-3 ovarian) was over 100 µM and the TGI (SW-620 colon) was over 100 µM. For the same compound, the TGI (NCI-H460 lung) was over 100 µM, the TGI (SF-539 CNS) was over 100 µM and the TGI (HT29 colon) was over 100 µM. For the same compound, the TGI (TK-10 renal) was over 100 µM, the TGI (HCT-116 colon) was over 100 µM and the TGI (OVCAR-4 ovarian) was over 100 µM. The TGI (HOP-92 NSCLC) was over 100 µM, the TGI (DU-145 prostate) was over 100 µM and the TGI (EKVX NSCLC) was over 100 µM. For the same compound, the TGI (MCF7 breast) was over 100 µM, the TGI (LOX IMVI melanoma) was over 100 µM and the TGI (SR leukemia) was over 100 µM. For the same compound, the TGI (M14 melanoma) was over 100 µM, the TGI (MDA-N) was over 100 µM and the TGI (786-0 renal) was over 100 µM. For the same compound, the TGI (MDA-MB-435) was over 100 µM, the TGI (CAKI-1 renal) was over 100 µM and the TGI (NCI/ADR-RES ovarian) was over 100 µM. The TGI (HOP-62 NSCLC) was over 100 µM, the TGI (MDA-MB-231 breast) was over 100 µM and the TGI (OVCAR-8 ovarian) was over 100 µM. The TGI (U251 CNS) was over 100 µM, the TGI (RPMI-8226 leukemia) was over 100 µM and the TGI (T-47D breast) was over 100 µM. For the same compound, the TGI (OVCAR-3 ovarian) was over 100 µM, the TGI (SK-MEL-28 melanoma) was over 100 µM and the TGI (SK-MEL-5 melanoma) was over 100 µM. The TGI (IGROV1 ovarian) was over 100 µM and the TGI (CCRF-CEM leukemia) was over 100 µM.
`COC(C/C(=C/CO[Si](C(C)C)(C(C)C)C(C)C)C(=O)Nc1ccccc1I)OC` gave a TGI (SF-268 CNS) of over 100 µM, a TGI (MOLT-4 leukemia) of over 100 µM and a TGI (RXF 393 renal) of 27.1 µM. It also gave a TGI (UO-31 renal) of over 100 µM, a TGI (SNB-19 CNS) of 42.5 µM and a TGI (ACHN renal) of over 100 µM. It also gave a TGI (SK-MEL-2 melanoma) of 31.1 µM, a TGI (NCI-H23 lung) of over 100 µM and a TGI (A549 NSCLC) of over 100 µM. For the same compound, the TGI (KM12 colon) was over 100 µM, the TGI (HS 578T breast) was over 100 µM and the TGI (PC-3 prostate) was 62.2 µM. The TGI (OVCAR-5 ovarian) was 70 µM, the TGI (SNB-75 CNS) was over 100 µM and the TGI (MALME-3M melanoma) was 31.8 µM. It also gave a TGI (SF-295 CNS) of 28.2 µM, a TGI (K-562 leukemia) of over 100 µM and a TGI (SN12C renal) of over 100 µM. The TGI (NCI-H226 lung) was 98.5 µM, the TGI (HCC-2998 colon) was 40 µM and the TGI (HCT-15 colon) was 71.1 µM. The TGI (COLO 205 colon) was over 100 µM, the TGI (UACC-257 melanoma) was over 100 µM and the TGI (UACC-62 melanoma) was over 100 µM. It also gave a TGI (SK-OV-3 ovarian) of over 100 µM, a TGI (SW-620 colon) of over 100 µM and a TGI (NCI-H460 lung) of over 100 µM. The TGI (SF-539 CNS) was 48.4 µM, the TGI (HT29 colon) was over 100 µM and the TGI (TK-10 renal) was over 100 µM. The TGI (HCT-116 colon) was 39.8 µM, the TGI (OVCAR-4 ovarian) was over 100 µM and the TGI (HOP-92 NSCLC) was 61.7 µM. It also gave a TGI (DU-145 prostate) of over 100 µM, a TGI (LOX IMVI melanoma) of 45.5 µM and a TGI (SR leukemia) of over 100 µM. The TGI (M14 melanoma) was over 100 µM, the TGI (MDA-N) was over 100 µM and the TGI (786-0 renal) was over 100 µM. It also gave a TGI (MDA-MB-435) of over 100 µM, a TGI (CAKI-1 renal) of over 100 µM and a TGI (NCI/ADR-RES ovarian) of over 100 µM. It also gave a TGI (HOP-62 NSCLC) of over 100 µM, a TGI (MDA-MB-231 breast) of 46 µM and a TGI (OVCAR-8 ovarian) of over 100 µM. For the same compound, the TGI (U251 CNS) was over 100 µM, the TGI (NCI-H522 lung) was 6.05 µM and the TGI (RPMI-8226 leukemia) was 43.4 µM. It also gave a TGI (T-47D breast) of over 100 µM, a TGI (A498 renal) of over 100 µM and a TGI (OVCAR-3 ovarian) of 51.8 µM. For the same compound, the TGI (SK-MEL-28 melanoma) was over 100 µM, the TGI (SK-MEL-5 melanoma) was over 100 µM and the TGI (IGROV1 ovarian) was 28.7 µM. For the same compound, the TGI (CCRF-CEM leukemia) was over 100 µM.
